Target: GCN2 kinase (Homo sapiens, UniProt Q9P2K8)
Experiment: GCN2 enzyme inhibition assay (Transcreener ADP2 fluorescence polarization)
Type: biochemical
Details: compounds of Formula II; 280 μM ATP, 4 nM GCN2 kinase
Summary of the method: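 Inhibition of 4 nM GCN2 was measured with compound up to 8 μM final, ATP 280 μM and (RS)7 peptide 200 μM over a 1 h, 25 °C reaction. ADP FP readout; IC50 and Ki(app) calculated from percent inhibition.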

GCN2 kinase, sequence (Q9P2K8 whole entry): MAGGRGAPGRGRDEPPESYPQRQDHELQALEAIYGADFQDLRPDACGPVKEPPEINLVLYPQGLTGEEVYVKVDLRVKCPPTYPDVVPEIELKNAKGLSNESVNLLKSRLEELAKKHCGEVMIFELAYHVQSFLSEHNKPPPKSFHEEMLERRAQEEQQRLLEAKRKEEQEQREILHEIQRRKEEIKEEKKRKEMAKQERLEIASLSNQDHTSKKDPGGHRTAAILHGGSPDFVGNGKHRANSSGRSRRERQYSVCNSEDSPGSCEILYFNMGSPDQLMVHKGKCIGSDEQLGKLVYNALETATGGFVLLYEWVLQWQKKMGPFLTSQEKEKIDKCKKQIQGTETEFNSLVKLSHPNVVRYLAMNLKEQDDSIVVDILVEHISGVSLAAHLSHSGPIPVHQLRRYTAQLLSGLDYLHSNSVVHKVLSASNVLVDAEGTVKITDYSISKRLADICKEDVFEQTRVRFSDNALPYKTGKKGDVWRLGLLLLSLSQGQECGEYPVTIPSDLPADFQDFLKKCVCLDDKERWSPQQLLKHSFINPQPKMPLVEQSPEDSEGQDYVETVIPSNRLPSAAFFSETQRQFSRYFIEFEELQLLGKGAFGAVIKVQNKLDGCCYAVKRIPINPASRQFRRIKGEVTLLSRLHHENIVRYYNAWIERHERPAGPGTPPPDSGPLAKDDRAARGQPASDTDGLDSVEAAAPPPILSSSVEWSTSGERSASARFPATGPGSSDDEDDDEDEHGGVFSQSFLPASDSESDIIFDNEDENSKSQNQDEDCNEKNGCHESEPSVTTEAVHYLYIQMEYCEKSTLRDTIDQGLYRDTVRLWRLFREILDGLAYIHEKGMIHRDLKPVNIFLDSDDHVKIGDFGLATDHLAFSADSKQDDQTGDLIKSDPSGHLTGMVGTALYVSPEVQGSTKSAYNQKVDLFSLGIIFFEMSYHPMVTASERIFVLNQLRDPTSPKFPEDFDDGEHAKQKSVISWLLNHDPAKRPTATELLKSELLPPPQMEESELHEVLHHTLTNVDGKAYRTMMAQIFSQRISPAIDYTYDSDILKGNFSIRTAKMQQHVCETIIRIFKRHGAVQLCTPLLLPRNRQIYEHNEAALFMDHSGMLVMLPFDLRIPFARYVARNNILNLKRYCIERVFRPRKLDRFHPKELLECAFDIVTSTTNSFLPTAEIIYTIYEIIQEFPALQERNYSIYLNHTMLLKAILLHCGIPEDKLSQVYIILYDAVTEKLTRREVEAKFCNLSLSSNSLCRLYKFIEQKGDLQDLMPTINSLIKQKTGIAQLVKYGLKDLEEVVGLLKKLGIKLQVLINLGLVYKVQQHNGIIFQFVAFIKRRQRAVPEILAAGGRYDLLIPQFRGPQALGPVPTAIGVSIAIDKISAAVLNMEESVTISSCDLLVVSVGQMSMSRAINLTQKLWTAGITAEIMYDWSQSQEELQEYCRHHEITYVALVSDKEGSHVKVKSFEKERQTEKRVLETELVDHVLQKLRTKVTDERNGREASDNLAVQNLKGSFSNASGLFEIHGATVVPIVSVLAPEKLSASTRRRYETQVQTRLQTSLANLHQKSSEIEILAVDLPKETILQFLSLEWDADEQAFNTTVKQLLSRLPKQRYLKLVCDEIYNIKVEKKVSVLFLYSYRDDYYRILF

Row | Structure (SMILES) | Ki
1 | CC1CC(CS(C)(=O)=O)C(C)N(c2cc(-c3cnc4ccc(C(F)F)nn34)ncn2)C1 (stereo not drawn) [II-588, 6-(difluoromethyl)-3-[6-[2,5-dimethyl-3-(methylsulfonylmethyl)-1-piperidyl]pyrimidin-4-yl]imidazo[1,2-b]pyridazine] | 10 to 1000 nM
2 | CS(=O)(=O)NC1CN(c2cc(-c3cnc4ccc(C(F)F)nn34)ncn2)CCC1(F)F (stereo not drawn) [II-589, N-(1-(6-(6-(Difluoromethyl)imidazo[1,2-b]pyridazin-3-yl)pyrimidin-4-yl)-4,4-difluoropiperidin-3-yl)methanesulfonamide] | 10 to 1000 nM
3 | CC(=O)N1CCN(c2cc(-c3cnc4ccc(Cl)nn34)ncn2)CC1 [II-590, 1-[4-[6-(6-Chloroimidazo[1,2-b]pyridazin-3-yl)pyrimidin-4-yl]piperazin-1-yl]ethanone] | > 1000 nM
4 | CC1CC(CNS(C)(=O)=O)CN(c2cc(-c3cnc4ccc(C(F)F)nn34)ncn2)C1C (stereo not drawn) [II-591, N-((1-(6-(6-(Difluoromethyl)imidazo[1,2-b]pyridazin-3-yl)pyrimidin-4-yl)-5,6-dimethylpiperidin-3-yl)methyl)methanesulfonamide] | < 10 nM
5 | CC1CC(CNS(C)(=O)=O)CN(c2cc(-c3cnc4ccc(C(F)F)nn34)ncn2)C1C (stereo not drawn) [II-592, N-((1-(6-(6-(Difluoromethyl)imidazo[1,2-b]pyridazin-3-yl)pyrimidin-4-yl)-5,6-dimethylpiperidin-3-yl)methyl)methanesulfonamide] | < 10 nM
6 | CS(C)(=O)=NCc1cccc(-c2cc(-c3cnc4ccc(C(F)F)nn34)ncn2)c1 [II-595, ((3-(6-(6-(Difluoromethyl)imidazo[1,2-b]pyridazin-3-yl)pyrimidin-4-yl)benzyl)imino)dimethyl-λ^6-sulfanone] | 10 to 1000 nM
7 | CS(=O)(=O)NC1CN(c2cc(-c3cnc4ccc(C(F)F)nn34)ncn2)CCC1(F)F (stereo not drawn) [II-596, N-(1-(6-(6-(Difluoromethyl)imidazo[1,2-b]pyridazin-3-yl)pyrimidin-4-yl)-4,4-difluoropiperidin-3-yl)methanesulfonamide] | 10 to 1000 nM
8 | CS(=O)(=O)NC1CN(c2cc(-c3cnc4ccc(C(F)F)nn34)ncn2)CCC1(F)F (stereo not drawn) [II-597, N-(1-(6-(6-(Difluoromethyl)imidazo[1,2-b]pyridazin-3-yl)pyrimidin-4-yl)-4,4-difluoropiperidin-3-yl)methanesulfonamide] | 10 to 1000 nM
9 | CS(=N)(=O)Cc1cccc(-c2cc(-c3cnc4ccc(C(F)F)nn34)ncn2)c1 (stereo not drawn) [II-598, (3-(6-(6-(Difluoromethyl)imidazo[1,2-b]pyridazin-3-yl)pyrimidin-4-yl)benzyl)(imino)(methyl)-λ^6-sulfanone] | 10 to 1000 nM
10 | CS(C)(=O)=Nc1cccc(-c2cc(-c3cnc4ccc(C(F)F)nn34)ncn2)c1 [II-599, [3-[6-[6-(Difluoromethyl)imidazo[1,2-b]pyridazin-3-yl]pyrimidin-4-yl]phenyl]imino-dimethyl-oxo-λ^6-sulfane] | 10 to 1000 nM
11 | CC1C(NS(C)(=O)=O)CCCN1c1cc(-c2cnc3ccc(C(F)F)nn23)ncn1 (stereo not drawn) [II-600, N-(1-(6-(6-(Difluoromethyl)imidazo[1,2-b]pyridazin-3-yl)pyrimidin-4-yl)-2-methylpiperidin-3-yl)methanesulfonamide] | > 1000 nM
12 | CC1C(NS(C)(=O)=O)CCCN1c1cc(-c2cnc3ccc(C(F)F)nn23)ncn1 (stereo not drawn) [II-601, N-(1-(6-(6-(Difluoromethyl)imidazo[1,2-b]pyridazin-3-yl)pyrimidin-4-yl)-2-methylpiperidin-3-yl)methanesulfonamide] | < 10 nM
13 | CC1C(NS(C)(=O)=O)CCCN1c1cc(-c2cnc3ccc(C(F)F)nn23)ncn1 (stereo not drawn) [II-603, N-(1-(6-(6-(Difluoromethyl)imidazo[1,2-b]pyridazin-3-yl)pyrimidin-4-yl)-2-methylpiperidin-3-yl)methanesulfonamide] | 10 to 1000 nM
14 | C[C@H]1C[C@@H](CS(C)(=N)=O)[C@@H](C)N(c2cc(-c3cnc4ccc(C(F)F)nn34)ncn2)C1 (stereo partly drawn) [II-604, (((2R,3R,5S)-1-(6-(6-(Difluoromethyl)imidazo[1,2-b]pyridazin-3-yl)pyrimidin-4-yl)-2,5-dimethylpiperidin-3-yl)methyl)(imino)(methyl)-λ^6-sulfanone] | 10 to 1000 nM
15 | C[C@H]1C[C@@H](CS(C)(=N)=O)[C@@H](C)N(c2cc(-c3cnc4ccc(C(F)F)nn34)ncn2)C1 (stereo partly drawn) [II-605, (((2R,3R,5S)-1-(6-(6-(Difluoromethyl)imidazo[1,2-b]pyridazin-3-yl)pyrimidin-4-yl)-2,5-dimethylpiperidin-3-yl)methyl)(imino)(methyl)-λ^6-sulfanone] | 10 to 1000 nM
16 | C[C@@H]1C[C@H](CS(C)(=N)=O)[C@H](C)N(c2cc(-c3cnc4ccc(C(F)F)nn34)ncn2)C1 (stereo partly drawn) [II-606, (((2S,3S,5R)-1-(6-(6-(Difluoromethyl)imidazo[1,2-b]pyridazin-3-yl)pyrimidin-4-yl)-2,5-dimethylpiperidin-3-yl)methyl)(imino)(methyl)-λ^6-sulfanone] | < 10 nM
17 | CC(C)(O)C1CCCN(c2cc(-c3cnc4ccc(C(F)F)nn34)ncn2)C1 (stereo not drawn) [II-608, 2-(1-(6-(6-(Difluoromethyl)imidazo[1,2-b]pyridazin-3-yl)pyrimidin-4-yl)piperidin-3-yl)propan-2-ol] | 10 to 1000 nM
18 | CC(NS(C)(=O)=O)c1cccc(-c2cc(-c3cnc4ccc(C(F)F)nn34)ncn2)c1 (stereo not drawn) [II-609, N-[1-[3-[6-[6-(Difluoromethyl)imidazo[1,2-b]pyridazin-3-yl]pyrimidin-4-yl]phenyl]ethyl]methanesulfonamide] | < 10 nM
19 | Cc1cc(CN=S(C)(C)=O)cc(-c2cc(-c3cnc4ccc(C(F)F)nn34)ncn2)c1 [II-610, [3-[6-[6-(Difluoromethyl)imidazo[1,2-b]pyridazin-3-yl]pyrimidin-4-yl]-5-methyl-phenyl]methylimino-dimethyl-oxo-λ^6-sulfane] | 10 to 1000 nM
20 | Cc1cc(C(=O)N=S(C)(C)=O)cc(-c2cc(-c3cnc4ccc(C(F)F)nn34)ncn2)c1 [II-611, 3-(6-(6-(difluoromethyl)imidazo[1,2-b]pyridazin-3-yl)pyrimidin-4-yl)-N-(dimethyl(oxo)-λ^6-sulfanylidene)-5-methylbenzamide] | 10 to 1000 nM
21 | Cc1cc(CNS(C)(=O)=O)cc(-c2cc(-c3cnc4ccc(C(F)F)nn34)ncn2)c1 [II-612, N-(3-(6-(6-(Difluoromethyl)imidazo[1,2-b]pyridazin-3-yl)pyrimidin-4-yl)-5-methylbenzyl)methanesulfonamide] | < 10 nM
22 | CC1CN(c2cc(-c3cnc4ccc(C(F)F)nn34)ncn2)CC(CO)O1 (stereo not drawn) [II-615, (4-(6-(6-(Difluoromethyl)imidazo[1,2-b]pyridazin-3-yl)pyrimidin-4-yl)-6-methylmorpholin-2-yl)methanol] | 10 to 1000 nM
23 | CC1CN(c2cc(-c3cnc4ccc(C(F)F)nn34)ncn2)CC(CO)O1 (stereo not drawn) [II-616, (4-(6-(6-(Difluoromethyl)imidazo[1,2-b]pyridazin-3-yl)pyrimidin-4-yl)-6-methylmorpholin-2-yl)methanol] | 10 to 1000 nM
24 | CC1C(CNS(C)(=O)=O)C(C)(O)C(C)CN1c1cc(-c2cnc3ccc(C(F)F)nn23)ncn1 (stereo not drawn) [II-617, N-((1-(6-(6-(Difluoromethyl)imidazo[1,2-b]pyridazin-3-yl)pyrimidin-4-yl)-4-hydroxy-2,4,5-trimethylpiperidin-3-yl)methyl)methanesulfonamide] | 10 to 1000 nM

Source: US10988477B2 (Merck Patent GmbH, priority 2018, dated 2021)
